# Assay results from patent US20040214799A1, “Cancerous metastasis inhibitors containing carbacyclic phosphatidic acid derivatives” (priority 2001, published 2004).
# “And” between values parts separate entries of the source, which are not always exact repeats. Equal entries are not always repeated.
# Key:
# MM1 cells [1] = experiment: Measurement of intracellular cAMP in MM1 cells; format: cell-based, rat; conditions: 25 μM cPA or 10 μM Forskolin, pretreated with 1 mM IBMX
# Method: After a certain time period, 10% ice-cooled TCA was added to stop the reaction. The centrifuged supernatant was washed 4 times with water-saturated diethylether to remove TCA, and then placed under nitrogen gas flow at 60° C. to remove the solvent completely. cAMP in the resultant sample was measured using a cyclic AMP [^3H] assay system (Amersham).
# MM1 cells [2] = conditions: reported by Mukai et al., Int. J. Cancer 81, 918-922 (1999); cited from earlier work
# MM1 cells [3] = conditions: Int. J. Cancer 81, 918-922 (1999), cited from earlier work
# MM1 cells [4] = experiment: Effect on the proliferation of MM1 cells; format: cell-based, rat; conditions: 12.5 μM or 25 μM cPA, 10% FBS, 24 hours and 72 hours
# Method: 12.5 μM and 25 μM cPA were added to media containing 10% FBS, and then the cells were cultured under conditions of 37° C. and 5% CO2 for 24 hours and 72 hours. The number of the MM1 cells was counted using a hemocytometer.
# MM1 cells [5] = conditions: reported by Mukai et al., Int. J. Cancer 81, 918-922 (1999); cited from earlier work; remark: listed apart in the source
# HT-1080 cells = conditions: Mukai et al., Int. J. Cancer 81, 918-922 (1999); cited from earlier work
# [6] = system: Mouse malignant melanoma B16-F0; experiment: B16 melanoma hematogenous lung metastasis model; format: in vivo; conditions: 0.008 mg/body i.v. On Metastatic nodules, Abdominal cavity Adipose tissue: key: −: Absent; +: Present. On Metastatic nodules, Abdominal cavity Adrenal gland: key: −: Absent; +: Present. On Metastatic nodules, Abdominal cavity Diaphragm: key: −: Absent; +: Present. On Metastatic nodules, Abdominal cavity Kidney: key: −: Absent; +: Present. On Metastatic nodules, Abdominal cavity Ovary: key: −: Absent; +: Present. On Metastatic nodules, Abdominal cavity Spleen: key: −: Absent; +: Present. On Metastatic nodules, Thoracic cavity: key: −: Absent; +: Present. On Metastatic nodules, Tissue around glandual clitoris: key: −: Absent; +: Present.
# Method: cPA-19 and cPA-20 were used as test substances. 0.1 w/v % BSA/PBS which was prepared by dissolving Albumin, Bovine [essentially Fatty Acid Free] (BSA, Lot No. 89H7604, Sigma chemical company) in Ca^2+ and Mg^2+ free PBS (pH 7.2), was used as a medium After preparation, the solution was sterilized by filtration using a filter (0.22 μm, Millipore). Preparation was performed when used. cPA-5 was used as a positive control substance.
# A medium was added in a volume required for a test substance or a positive control substance. Dissolution was performed by ultrasonication, thereby preparing a 0.16 mg/mL solution. The 0.16 mg/mL solution containing a test substance was diluted with a medium, thereby preparing 0.08 and 0.02 mg/mL solutions. All mixtures were prepared when used.
# Mice were purchased from CHARLES RIVER JAPAN. INC. The line employed herein was C57BL/6NCrj (sexuality: female). The number of animals kept in stock was 60, and the age of these animals when kept in stock was 4 weeks. […] The environmental conditions for the test system were as follows:
# Mouse malignant melanoma B16-F0 was used as a tumor cell. The cell was purchased from Dainippon Pharmaceutical Co., Ltd.
# Dulbecco's Modified Eagle's Media containing 10% feral bovine serum and kanamycin were used for culture. […] A medium was added to stop the action of trypsin while pipetting, thereby preparing a cell suspension. The suspension was diluted by one-tenth with a medium for culturing, followed by subculturing until it reached a volume sufficient for grafting.
# A cell suspension was prepared by the same technique as the subculture method. Specifically, the cells were washed with a Ca^2+ and Mg^2+ free phosphate buffer [PBS(−)], and then harvested. The harvested cells were suspended in a 10 mL of PBS(−), thereby preparing a cell suspension. The number of cells in the cell suspension was measured to obtain the total cell number. 50 μL of the cell suspension, 100 μL of 0.4% trypan blue liquid and 100 μL of PBS(−) were mixed, and then viable count was measured. The survival rate of the cells was calculated from the viable count and total cell number.
# Based on the body weight on the day of the administration of the test substance, mice were grouped into 8 test groups according to the stratified continuous randomization method as shown in Table 2 below.
# The mixture was administered via the caudal vein. The number of grafted cells was 5×10^5 cells/body. The dose of the test substance was 0.001, 0.004 or 0.008 mg/body, and the dose of the positive control substance was 0.008 mg/body.
# On day 14 after the administration of the test substance, blood was collected from the posterior portion of the abdominal vena cava under isoflurane anesthesia. After the mice were sacrificed by blood-letting, the presence or absence of intrapleural and intraperitoneal metastatic nodules was confirmed. Lungs were extracted, and then fixed with a 10% neutral buffered formalin solution. The number of nodules resulting from lung metastasis was measured under a stereoscopic microscope (magnification: 10 times).
# After the measurement of the number of nodules resulting from lung metastasis, samples were paraffin-embedded, and then thin sections were prepared. Hematoxylin eosinic-stained samples were prepared from these sections. The number of metastatic lesions in the certain portions of the left lobe and the posterior lobe was measured, and then the lesions were sorted by size. On the basis of the diameter (0.65 mm) of an object lens (×40), metastatic lesions with major diameters of less than 0.65 mm were classified as having a small size, and those with major diameters of between 0.65 mm or more and less than 1.30 mm were classified as having a large size. Furthermore, the degree of invasion of lymphocytes into metastatic lesions was confirmed qualitatively.
# The representative value of each test group was denoted as mean±standard deviation (mean±S.D.). Differences in mean values were examined as follows.
# [7] = autopsy day 14, individual animals
smiles,measurement,setting,value
"CCCCCCCCCCCCCCCC(=O)OC[C@@H]1COP(=O)(O)O1 [cPA-5, Pal-cPA, reference compound]",change of intracellular cAMP concentration (in words),MM1 cells [1],could not be confirmed
same,suppression of FBS-induced invasion (in words),MM1 cells [2],strongly suppress
same,invasion suppressing action on LPA-induced invasion (in words),MM1 cells [3]; reported by Mukai et al.,strongly suppress
same,suppressed LPA-induced invasion by,MM1 cells [3]; studied by Mukai et al.,approximately 85%
same,effect on MM1 cell proliferation (in words),MM1 cells [4],no effect on MM1 cell proliferation
same,intracellular cAMP concentration of MM1 cells (in words),MM1 cells [5],leads an increase of intracellular cAMP concentration
same,suppression of serum/LPA-independent invasion of HT-1080 cells (in words),HT-1080 cells,suppressed
same,action of decreasing the number of metastatic lesions (in words),[6],no action of decreasing the number of metastatic lesions was observed
same,metastasis / number of metastatic nodules in the lungs versus medium group (in words),[6],a significant decrease was observed in the number of metastatic nodules
same,invasion of lymphocytes into metastatic lesions observed in cases,[6]; animals with metastatic lesions,2 out of 5
same,"Metastatic nodules, Abdominal cavity Adipose tissue",[6]; [7],−
same,"Metastatic nodules, Abdominal cavity Adrenal gland",[6]; [7],−
same,"Metastatic nodules, Abdominal cavity Diaphragm",[6]; [7],−
same,"Metastatic nodules, Abdominal cavity Kidney",[6]; [7],−
same,"Metastatic nodules, Abdominal cavity Ovary",[6]; [7],−
same,"Metastatic nodules, Abdominal cavity Spleen",[6]; [7],+ (3×) and − (3×)
same,"Metastatic nodules, Thoracic cavity",[6]; [7],−
same,"Metastatic nodules, Tissue around glandual clitoris",[6]; [7],−
same,cases with metastatic nodules in the spleen,"[6]; autopsy, 6 mice",3 case
same,metastatic nodules in the thoracic cavity,"[6]; autopsy, 6 mice",no metastatic nodules were observed
same,"Number of lung tumor nodules, Range (mininum-maximum)","[6]; day 14, N 6",5-38
same,Number of mice having lung tumor nodules,"[6]; day 14, N 6",6
same,Number of lung tumor nodules,"[6]; day 14, mean ± S.D., N 6",21 ± 13$
same,Number of mice having metastatic lesions,"[6]; lung histopathology, N 6",5
same,Findings: Invasion of lymphocytes into melanoma metastatic lesion,"[6]; lung histopathology, individual animals",− (3×) and ++ and +
same,"Number of metastatic lesions per section, Large size","[6]; major diameter 0.65 mm ≦ and <1.3 mm, mean ± S.D.",0.8 ± 0.8
same,"Number of metastatic lesions per section, Small size","[6]; major diameter <0.65 mm, left lobe and posterior lobe, mean ± S.D.",1.2 ± 0.8
same,"Number of metastatic lesions per section, Total",[6]; mean ± S.D.,2.0 ± 1.3
